Laboratory results reported in patent publication US20220339178A1, “COMPOSITIONS AND METHODS FOR COGNITIVE PROTECTION OF POLLINATORS AGAINST PESTICIDES” (priority 2019, published 2022).

Assays:
[1] = test system: butyrylcholinesterase (BChE); details: literature report; cited from earlier work
[2] = test system: Honeybees (Apis mellifera scutellata); test: Classical conditioning of the proboscis extension response (PER): learning, 24 h memory retention, latency; flavonoids vs imidacloprid; assay type: in vivo
Method: Honeybees (Apis mellifera scutellata) were captured from established hives at the Apiary of the Pontificia Universidad Javeriana (Bogota, Colombia). Foragers were collected while leaving to forage between 8:00 am and 10:00 am (Matsumoto et al., J Neurosci Methods. 211(1):159-67. 2012). Bees were maintained in individual plastic chambers under laboratory conditions (photoperiod followed seasonal pattern; relative humidity: 63%; temperature: 18° C.). Food was provided once a day in a volume of 20 μL and varied in composition according to experimental treatments.
Control (2M sugar water): fed once a day (20 μL) for three consecutive days;
Quercetin (6.6 mM quercetin (Sigma-Aldrich: Q4951)-sucrose-water with DMSO 1% (Sigma-Aldrich: D8418): fed once a day for three days;
Rutin (1 mM rutin (Sigma-Aldrich R5143)-sucrose-water with DMSO 1%: fed once a day for three days;
Imidacloprid (1.16 nM Imidacloprid (Bayer)-sucrose-water: fed as a single dose (20 μL) 1.5 h before training;
Quercetin-Imidacloprid: bees received the quercetin treatment (see above) and were fed Imidacloprid 1.5 h before training; and
Rutin-Imidacloprid: bees received the rutin treatment (see above) and were fed Imidacloprid 1.5 h before training.
Bees were trained using classical conditioning of the proboscis extension response (PER), a broadly used method to study learning and memory in bees. Briefly, bees received a soft current of clean air for 15 seconds to allow bees to accommodate. Then a soft current of 1-hexanol (Sigma-Aldrich: 471402) was injected for 10 seconds. Six seconds after injection of 1-hexanol, one of the antennae was stimulated with sucrose water (50% w/w), which leads to the reflexive extension of the proboscis, and the bee was allowed to drink for 4 seconds. Thus, the reward and the stimulus overlapped for four seconds. This sequence, recognized as a training trial, was repeated eight times. Time was determined using a metronome (2 Hz). Memory retention was tested 24 hours after the eight training trials. […] 12 bees were trained each session. Training was conducted by an experimenter blind to treatment.
Learning was assessed from the total number of conditioned responses across the eight trials. Thus, each bee received a learning score between 0-7 (by definition, bees cannot show a learned response at the first trial). After 24 h, memory retention was assessed as the response to the presentation of 1-hexanol without a sucrose reward. Latency of response was quantified as the time between the onset of 1-hexanol stimulation and the onset of a response that led to a full extension of proboscis. Only bees being responsive to sucrose water across all training trials and the memory retention test were considered for analyses. Learning scores were compared across treatments using a Mann-Whitney test as data were not normally distributed (Shapiro-Wilk W test for the hypothesis that the data is from a Normal distribution: P<0.05 for all treatments). Comparisons of the learning score of bees across all treatments relative to Control bees were conducted using the Steel method adjusted as one or two-tailed tests. Additional post hoc comparisons were performed between Imid and Quer+Imid bees and between Imid and Rut+Imid bees. Memory retention was compared across groups using an overall Chi-Square test and independent tests for planned comparisons were performed using adjusted Wald tests for proportions. In all cases error due to multiple comparisons was controlled using the False Discovery Rate one stage method and adjusted p-values (q-values) are presented (Benjamini & Hochberg, Journal of the Royal Statistical Society. Series B (Methodological), 57(1):289-300. 1995; Pike, N., Methods in Ecology and Evolution, 2(3):278-282. 2011). All analyses were conducted using JMP v.14.0 (SAS Institute Inc). […]

AChE = details: literature report; cited from earlier work

| SMILES | inhibition of butyrylcholinesterase (BChE) [1] | memory retention, proportion difference relative to Control bees (Adjusted Wald test) ([2]; conditioned PER after 24 h) | latency of response during learning acquisition relative to Control bees ([2]; honey bees) | learning scores relative to bees in the Imid group ([2]; honey bees prophylactically fed flavonoid for three days, then imidacloprid 1.5 h before training) | learning scores relative to Control bees ([2]; honey bees, 8 trials, score 0-7, quercetin 6.6 mM or rutin 1 mM once a day for three days, imidacloprid 1.16 nM 20 μL 1.5 h before training) | inhibition of AChE (AChE) |
| --- | --- | --- | --- | --- | --- | --- |
| O=c1c(O)c(-c2ccc(O)c(O)c2)oc2cc(O)cc(O)c12 [Quercetin] | concentration-dependent inhibition ability | −0.13 | not significantly different from Control | significantly higher learning scores | significantly higher learning scores | concentration-dependent inhibition ability |
| C=CC(C)(C)c1c2c(c(O)c3c(=O)c4ccc(O)c(O)c4oc13)C=CC(C)(C)O2 [macluraxanthone] | concentration-dependent inhibition ability |  |  |  |  | concentration-dependent inhibition ability |
